Legend:
[1] = tested on: bovine viral diarrhea virus (BVDV-AV69); assay: CPE observation of effects on cytopathy caused by BVDV in MDBK cells
Experimental: Pharmaceutical effects of drugs of the invention against cytopathy caused by inoculation of BVDV virus are investigated using MDBK (NBL-1) cells (purchased from Chinese Academy of Science's Shanghai Center for Type Culture Collection) and bovine viral diarrhea virus (BVDV-AV69) (purchased from China Institute of Veterinary Drugs Control). Ribavirin (R; Henan RunHong Pharmaceutical Co., Ltd; batch number: E0909604) is used as positive drug control. MDBK cells are prepared as a suspension (1×10^5/mL) in RPMI1640 culture medium which contains 10% in volume fetal bovine serum (Zhejiang Tianhang Biotechnology Co., Ltd; batch number: 100524), 100 μg/mL streptomycin (Shenzheng Huayao Nanfang Pharmaceutical Co., Ltd; batch number: N09081), 100 U/mL penicillin (North China Pharmaceutical Co., Ltd; batch number: E0909604), and are seeded in 96 well plates (Costar, US) at 200 μL/well, placed in an incubator (Binder, Germany) at 37° C. with 5% CO2 to culture the cell. In 24 h when cells grow into a single layer, virus solution of 100 TCID50 (TCID50=10^−2.5) is added and incubated for 1.5 h. Maintenance medium with the drug is added at 200 μL/well after 3×PBS washes.
After digestion of MDBK cells with trypsin, cells with a concentration of 1×10^5/mL are seeded into 96 well plates at 200 μL/well, placed in an incubator at 37° C. with 5% CO2 for 24 h. After growing into a single layer, cells are attacked using 100 TCID50 (TCID50=10^−2.5) virus and incubated for 1.5 h. The virus-containing maintenance medium is discarded, and cells are washed with PBS, followed by addition of drug-containing maintenance medium with different concentrations, and incubation in 5% CO2 at 37° C. Normal cell control, virus control, drug treatment and ribavirin treatment groups are set. The cytopathy developing status is recorded everyday by observing under an inverted microscope.

[2] = tested on: mice with carbon tetrachloride induced liver damage; assay: Carbon tetrachloride induced chemical liver damage model in mice; format: in vivo, Kunming mice
Experimental: Kunming mice of clean grade (male, weight 20±2 g), after adaptively fed for 3 days, are randomly divided into normal group, model group, bifendate positive control group (200 mg/kg), AD group (0.88 mmol/kg), low dosage group (0.66 mmol/kg) and high dosage group (0.88 mmol/kg) of compound A, B, C and D, with 8 mice in each group. Positive group and each test group are intragastrically given with respective suspension prepared with 0.5% CMC-Na, and normal group and model group are given with 0.5% CMC-Na. The drugs are given for 3 days, and 1 h after the last administration, all mice except those in the normal group are intraperitoneally injected with a single dose of 0.3% carbon tetrachloride in peanut oil (0.1 mL/10 g). After 16 h, the eyeball of the mice in each group is enucleated to collect blood, which is centrifuged at 3000 rpm for 15 min to separate serum. ALT and AST activities are tested respectively (Nanjing Jiancheng Bioengineering Institute). The left lobe of liver is taken to prepare 10% homogenate using physiological saline, MDA (Nanjing Jiancheng Bioengineering Institute) and PGE2 contents are determined. Experimental data are expressed as average±standard deviation (X±s), analyzed with SPSS 11.5 statistic software, with P<0.05 meaning there is a significant difference. Other agents, drugs and experimental methods are the same as in EXAMPLE 1. In experimental investigation of both models, the following grouping method is used: Kunming mice of clean grade (male, weight 20±2 g) are randomly divided into normal group, model group, bifendate group (200 mg/kg), AD group (0.88 mmol/kg), low dosage group (0.66 mmol/kg) and high dosage group (0.88 mmol/kg) of compound E, with 8 mice in each group. Other agents, drugs and experimental methods are the same as in EXAMPLE 1 and in EXAMPLE 4, respectively.

[3] = tested on: MDBK (NBL-1) cells; assay: MTT assay for cytotoxicity; format: cell-based, bovine; conditions: 0-7.5 μmol/L, 48 h
Experimental: The drug-containing medium is added and further incubated for 48 h. MTT is added (5 mg/mL) at 20 μL/well and cultured for 4 h, the supernatant is discarded and 150 μL DMSO is added, then the plate is shaken for 10 minutes and the absorbance is determined using a microplate reader using the wavelength 570 nm and a reference wavelength 450 nm. The cell survival rate is calculated after treatment of compounds: cell survival rate (%)=drug group A value/cell control group A value×100%, and the results are shown in FIG. 10. Cell proliferation inhibition rate (%)=100%−survival rate (%), half maximal (50%) toxic concentration (TC50) is calculated according to Reed-Muench method.

[4] = tested on: mice with ethanol induced liver damage; assay: Ethanol induced liver damage model in mice; format: in vivo, Kunming mice
Experimental: Kunming mice of clean grade (male, weight 20±2 g), after adaptively fed for 3 days, are randomly divided into normal group, model group, bifendate positive control group (200 mg/kg), AD group (0.88 mmol/kg), low (0.44 mmol/kg), median (0.66 mmol/kg) and high (0.88 mmol/kg) dosage groups of compound A, and median (0.66 mmol/kg) and high (0.88 mmol/kg) dosage groups of compound B, with 8 mice in each group. Positive group and each test group are intragastrically given with respective suspension prepared with 0.5% CMC-Na, and normal group and model group are given with 0.5% CMC-Na. The drugs are given for 3 days, and 1 h after the last administration, all mice except those in the normal group are intragastrically administrated with a single dose of 50% EtOH ([…]). After 16 h, the eyeball of the mice in each group is enucleated to collect blood, which is centrifuged at 3000 rpm for 15 min to separate serum. ALT and AST activities are tested respectively (Nanjing Jiancheng Bioengineering Institute). The left lobe of liver is taken to prepare 10% homogenate using physiological saline, MDA (Nanjing Jiancheng Bioengineering Institute) content is determined. Experimental data are expressed as average±standard deviation (X±s), analyzed with SPSS 11.5 statistic software, with P<0.05 meaning there is a significant difference. Other agents, drugs and experimental methods are the same as in EXAMPLE 1.

[5] = dosage groups not distinguished (0.66 and 0.88 mmol/kg), P<0.01
[6] = dosage groups not distinguished, P<0.01
[7] = high dosage 0.88 mmol/kg vs AD 0.88 mmol/kg, P<0.05
[8] = high dosage 0.88 mmol/kg, P<0.05
[9] = low dosage 0.66 mmol/kg vs AD 0.88 mmol/kg, P<0.05

C=C1CCC2C(C)(CO)C(O)CCC2(C)C1C=CC1=CC(=Cc2ccc(Cl)cc2)OC1=O (stereo not shown) [Compound A]
antiviral effect compared with AD ([1]; BVDV in MDBK cells): better antiviral effect than AD | pharmaceutical effect against cytopathy caused by virus compared with ribavirin ([1]; BVDV in MDBK cells): better than ribavirin | TI value (therapy index, TC50/IC50) ([1]; MDBK cells, BVDV-AV69, TC50 from MTT, IC50 from CPE): >127.6 | ALT activity in serum vs model group [2, 5]: notably suppress the increase | AST activity in serum vs model group [2, 5]: notably suppress the increase | MDA level in liver homogenate vs model group [2, 6]: effectively reduce | PGE2 level in liver homogenate vs model group [2, 6]: effectively reduce | magnitude of decrease in ALT activity compared to AD group [2, 7]: significantly better | magnitude of decrease in AST activity compared to AD group [2, 7]: significantly better | PGE2 content compared to AD group [2, 8]: notably lower | ability to reduce lipid peroxide level in liver homogenate compared to AD group [2, 8]: stronger ability to reduce the lipid peroxide level | magnitude of decrease in ALT activity compared to AD group [2, 9]: significantly better | magnitude of decrease in AST activity compared to AD group [2, 9]: significantly better | ability to reduce lipid peroxide level in liver homogenate compared to AD group ([2]; low dosage 0.66 mmol/kg, P<0.05): stronger ability to reduce the lipid peroxide level | protective effect against liver damage induced by carbon tetrachloride (summary) ([2]; mice, intragastric, 3 days): protective effect | cytotoxicity to MDBK cells [3]: do not show obvious cytotoxcity | ALT activity in serum vs model group [4, 6]: effectively suppress | AST activity in serum vs model group [4, 6]: effectively suppress | MDA content in liver homogenate vs model group [4, 6]: effectively reduce the MDA content | AST activity decreasing magnitude compared with AD group ([4]; high dosage 0.88 mmol/kg, P<0.01): notably larger | ALT activity decreasing magnitude compared with AD group ([4]; high dosage 0.88 mmol/kg, P<0.01 (A), P<0.05 (B)): notably larger | protective effect against liver damage induced by ethanol (summary) ([4]; mice, intragastric, 3 days): protective effect
